pKd: −log10 of the molar value. “Also recorded” adds a separate entry of the source.
Assays:
[1] = test system: 12 primary human cell based systems; conditions: cited from earlier work
[2] = test system: TMZ-sensitive GBM cells and TMZ-resistant GBM cells; conditions: cited from earlier work
[3] = test system: GBM tumors; conditions: intracranial GBM animal model; cited from earlier work
[4] = test system: LN229 GBM cells; assay: γH2Ax immunostaining after TMZ; type: cell-based; design: dose or concentration left out as unconfirmed; conditions: 24 hrs, FIG. 11
Procedure: After treatment for 24 hrs, cells were fixed and immunostained for gH2Ax. Analysis of immunostaining was performed on a laser confocal microscope.
As TMZ is DNA damaging agent, we tested the ability of various bromodomain inhibitors to enhance TMZ-induced DNA damage as evidence by immunostaining of GBM cells with γH2Ax and examination of the staining on a confocal microscope. γH2AX is the phosphorylated version of the histone variant H2Ax and is a highly specific and sensitive marker for monitoring DNA damage initiation and resolution. […] Similar results were obtained with MT330 GBM cells.

[5] = biological target: BRG1/BRM; conditions: cited from earlier work
[6] = test system: MT330 GBM cells; assay: Cell death ELISA in MT330 GBM cells; type: cell-based; conditions: for enhancement of TMZ-induced cell death: 10 mM inhibitor in combination with 200 mM of TMZ
Procedure: Control cells were treated with vehicle (DMSO). Cell death was determined at 72 hr after treatment by a cell death ELISA that quantifies histone-complexed DNA fragments. […]
Parental and BRG1 knockout MT330 cells were treated with bleomycin (0.01 μM) and bromodomain inhibitors […]. After 72 hr, cell death was determined by cell death ELISA.
The biological activity of bromodomain inhibitors was assessed for the ability to enhance TMZ-induced cell death. In brief, MT330 cells were treated with […] of bromodomain inhibitors alone, or in combination with […] of TMZ for 72 hrs, and GBM cell death was determined by a commercial ELISA.

[7] = test system: MT330 cells; assay: γH2Ax immunostaining after bleomycin; type: cell-based; conditions: FIG. 8
Procedure: After 1 hr of bleomycin treatment cell death, cells were fixed and immunostained for γH2Ax. Analysis of immunostaining was performed on at least 1,000 cells on the Lionheart FX imaging system.
Bleomycin is a chemotherapeutic drug that is used to treat various cancers. […] Thus, the ability of bleomycin to induce DNA damage as evidence by immunostaining of MT330 cells and LN229 with γH2Ax was tested. Quantification of cell staining was determined on the Lionheart FX imaging station.

[8] = test system: T98G GBM cells; assay: IncuCyte live cell imaging proliferation assay; type: cell-based; conditions: TMZ (500 μM) plus bromodomain inhibitors (20 μM), FIG. 2
Procedure: T98G GBM cells were treated with TMZ (500 μM), the bromodomain inhibitors (20 μM), and cell proliferation was determined by Incucyte live cell assays using cellular confluence method. The data was normalized to the calculated cell confluence at day 0. Control cells were treated with vehicle (DMSO).
To further characterize the biological activity of selected bromodomain inhibitors, YH-IV-129, YH-IV-181 and YH-IV-191, IncuCyte live cell imaging proliferation assays were performed with the highly TMZ-resistant T98G GBM cell line.

[9] = biological target: T1, BRM bromodomain (Homo sapiens, UniProt P51531); assay: Cellular thermal shift assay (CETSA), BRM bromodomain construct in MT330 cells; type: binding; conditions: FIG. 3
T1 construct: expressed in transfected cells; host or cells: MT330 glioblastoma cells
Procedure: (§1) For the CETSA, MT330 cells expressing the BRM (FIG. 6B), or BRG1 (FIG. 6C) the BRD construct were treated with bromodomain inhibitors […] and immunoblotted as indicated.
(§2) After heating over a temperature range from 44.5° C. to 55.6° C. for 5 min, MT330 cells were lysed and then immunoblotted for BRG1 or BRM.

[10] = biological target: T2, BRG1 bromodomain (Homo sapiens, UniProt P51532); assay: Cellular thermal shift assay (CETSA), BRG1 bromodomain construct in MT330 cells; type: binding; conditions: FIG. 3
T2 construct: expressed in transfected cells; host or cells: MT330 glioblastoma cells
Procedure: After heating over a temperature range from 44.5° C. to 55.6° C. for 5 min, the cells were lysed, placed on ice at 4° C. and then immunoblotted for BRG1 or actin.
as §1, §2

[11] = test system: T98G GBM cells; assay: Cell death ELISA in TMZ-resistant T98G cells; type: cell-based; conditions: TMZ (500 μM) and inhibitor (10 μM), 72 hr
Procedure: (§3) After 72 hr, cell death was determined by a commercial cell death ELISA.
(§4) To further test the bioactivity of bromodomain inhibitors, T98G and U87 GBM cell lines were used that are highly resistant to the death inducing activity of TMZ. […] Because of their high TMZ resistance, these cells may serve as cell models for TMZ resistant GBM cancer stem-like cells.

[12] = Tolerability in mice not injected with tumor cells; type: in vivo; conditions: at the drug doses used
[13] = test system: intracranial GBM xenografts (MT330 cells); assay: Orthotopic GBM model, MT330 cells injected into brains of NSG mice; type: in vivo
Procedure: MT330 cells (10^6) were injected into the brains of NSG female mice. After tumors were identified by BLI (˜10 days post-injection), mice were IP injected with TMZ (60 mg/Kg body weight) or IV-129 (10 mg/Kg) alone or in combination 3 times per week (5 mice per group) for 2 weeks. […] FIG. 5C Kaplan-Meier analysis of the survival data (5 mice/group) of the brain tumor-bearing mice was performed.
MT330 cells […] were injected into the brains of NSG female mice. After tumors were identified by BLI (˜10 days post-injection), mice were IP injected with TMZ (10 mg/Kg body weight), IV-255 or IV-275 (20 mg/Kg) alone or in combination 3 times per week (5 mice/group).
Luciferase-expressing MT330 cells were injected into the brains of immunocompromised NSG mice. Once tumors were identified by bioluminescence imaging (BLI) at ˜10 days after tumor cell injection, mice were subjected to intraperitoneal injection of TMZ or YH-IV-129 alone, or in combination. At 20 days after initiation of treatment, live animal imaging was performed on an IVIS Lumina instrument. […] The mean survival of control mice was 27 days after cell injection (FIG. 5C).
Luciferase-expressing MT330 cells were injected into the brains of immunocompromised NSG mice. Once tumors were identified by bioluminescence imaging (BLI) at ˜10 days after tumor cell injection, mice were subjected to intraperitoneal injection of TMZ or YH-IV-255 or YH-IV-275 alone, or in combination. […] This is compelling preliminary evidence that these two new compounds have potent anticancer activity in intracranial GBM xenografts when combined with standard-of-care TMZ chemotherapy and that these drugs cross the blood-brain barrier.

[14] = test system: U87 GBM cells; assay: Cell death ELISA in TMZ-resistant U87 cells; type: cell-based; conditions: U87, TMZ (500 μM) and inhibitor (10 μM), 72 hr, FIG. 4
Procedure: as §3, §4

[15] = vehicle control band disappearing at 49.8° C.

T1 sequence (P51531 1378-1506 limits assumed): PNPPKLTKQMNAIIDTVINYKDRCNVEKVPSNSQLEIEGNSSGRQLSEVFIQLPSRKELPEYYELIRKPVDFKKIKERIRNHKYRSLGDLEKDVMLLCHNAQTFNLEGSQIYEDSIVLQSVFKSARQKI
T2 sequence (P51532 1453-1564 limits assumed): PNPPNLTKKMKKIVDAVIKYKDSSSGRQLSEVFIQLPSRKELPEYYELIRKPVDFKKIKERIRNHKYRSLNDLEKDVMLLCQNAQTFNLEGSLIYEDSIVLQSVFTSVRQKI

With `O=C(/C=C/N1C[C@H]2C[C@@H]1CN2c1ccccn1)c1ccccc1O` [PFI-3] as the compound, how does the “inhibitory effects against a range of cellular endpoints” value [1] read?
The value was “inhibitory effects were not observed”.

What about the “enhancement of antiproliferation activity and cell death-inducing effects of TMZ” value [2] of the same compound?
Its value is “enhanced the antiproliferation activity and cell death-inducing effects of temozolomide”.

And the “survival of animals bearing GBM tumors treated with TMZ” value [3]?
Its value is “increase in survival”.

What about the “γH2Ax staining, inhibitor with TMZ” value [4] of the same compound?
The value was “marked increase in γH2Ax staining”.

And the pKd [5]?
The pKd was > 7.00.

And the “enhancement of TMZ-induced cell death” value ([6]; 72 hrs, FIG. 1)?
The value was “markedly increased the sensitivity of GBM cells to TMZ-induced cell death”.

What about the “cell death, inhibitor alone” value ([6]; 10 mM of bromodomain inhibitors alone, 72 hrs, FIG. 1) of the same compound?
The value was “did not induce cell death”.

And the “γH2Ax staining, PFI-3 alone” value ([7]; PFI-3 (5 μM) alone)?
Its value is “no effect on γH2Ax staining”.

What about the “γH2Ax staining, PFI-3 pretreatment followed by bleomycin” value ([7]; pretreated for 1 hr with PFI-3 (5 μM) followed by bleomycin (0.5 and 2 μM)) of the same compound?
Its value is “increased number of both γH2Ax positive cells and signal intensity of staining; also recorded: sensitized GBM cells to DNA damage induced by Bleomycin”.

Which “sensitization to the antiproliferative action of TMZ” value [8] does the source give for `COc1ccc(N2C[C@H]3C[C@@H]2CN3C(=O)OC(C)(C)C)cc1` [YH-IV-129, (1R,4R)-tert-butyl 5-(4-methoxyphenyl)-2,5-diazabicyclo[2.2.1]heptane-2-carboxylate] here?
The value was “potently sensitized T98G GBM cells to the antiproliferative action of TMZ”.

What about the “thermostability of the BRM BRD” value ([9]; heating 44.5° C. to 55.6° C. for 5 min, immunoblot) of the same compound?
Its value is “significantly increased the thermostability”.

What about the “temperature at which the BRM BRD protein band is undetectable” value [9, 15] of the same compound?
The value was 54.20 °C.

And the “thermostability of the BRG1 BRD” value ([10]; 30 μM, heating 44.5° C. to 55.6° C. for 5 min, immunoblot)?
The value was “significantly increased the thermostability”.

And the “temperature at which the BRG1 BRD protein band is undetectable” value [10, 15]?
The value was 54.20 °C.

What about the “sensitization to cell-death inducing effects of TMZ” value ([11]; FIG. 4) of the same compound?
The value was “much more potent than PFI-3”.

What about the “sensitization to cell-death inducing effects of TMZ” value ([11]; FIG. 4, listed as IV-129) of the same compound?
The value was “more potent than PFI-3 as a chemosensitizer to TMZ”.

And the “adverse effects on health, behavior or weight” value [12]?
The value was “no adverse effects on the health, behavior or weight of mice”.

What about the “mean survival, combination with TMZ” value ([13]; TMZ (60 mg/Kg) and IV-129 (10 mg/Kg) IP, control mice 27 days after cell injection, FIG. 5C) of the same compound?
The value was 48 days.

And the “mean survival, either agent alone” value ([13]; TMZ (60 mg/Kg) or IV-129 (10 mg/Kg) alone IP, control mice 27 days, FIG. 5C)?
Its value is 35 days.

And the “tumor size by bioluminescence (BLI)” value ([13]; combination with TMZ (60 mg/Kg) and IV-129 (10 mg/Kg) IP 3 times per week for 2 weeks, 20 days after treatment, versus either agent alone)?
Its value is “much smaller tumors”.

And the weight loss ([13]; combination with TMZ, 20 days post-treatment, versus either agent alone, FIG. 5B)?
Its weight loss is “weight loss was much lower”.

And the “crossing of the blood-brain barrier” value ([13]; inferred from activity in intracranial GBM xenografts)?
Its value is “crosses the blood-brain barrier”.

What about the “sensitization to cell-death inducing effects of TMZ” value [14] of the same compound?
Its value is “much more potent than PFI-3”.

And the “sensitization to cell-death inducing effects of TMZ” value ([14]; listed as IV-129)?
Its value is “more potent than PFI-3 as a chemosensitizer to TMZ”.

What about the “enhancement of TMZ-induced cell death” value ([6]; 72 hrs, FIG. 1) of the same compound?
Its value is “better efficacy than PFI-3; also recorded: markedly enhanced TMZ sensitivity of GBM cells in vitro”.

What about the “enhancement of bleomycin-induced cell death” value ([6]; bleomycin (0.01 μM) and bromodomain inhibitors (10 μM), 72 hr, FIG. 9) of the same compound?
The value was “sensitized GBM cells to bleomycin-induced cell death”.

What about the “cell death, inhibitor alone” value ([6]; bromodomain inhibitors (10 μM) alone, 72 hr, FIG. 9) of the same compound?
The value was “none of the bromodomain inhibitors (YH-IV-129, YH-IV-255 and YH-IV-275) alone had any death inducing activity”.

— patent US20240316043A1, “BROMODOMAIN INHIBITORS FOR CANCER THERAPY” (University of Tennessee Research Foundation, priority 2023, published 2024)
